target: IGF-1R (Homo sapiens (Human), UniProt P08069); assay: Example B-1: IGF-1R Assay (PC3 cells, IGF1 stimulation, AlphaLISA); assay type: cell-based; settings: 200 ng/mL IGF1 stimulation, read-out: Biological Activity against IGF-1R IC50
Summary of the method: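 Readout is AlphaLISA signal from lysed PC3 cells, expressed as % inhibition versus vehicle and EC80 controls and banded by IC50. Before lysis, the cells were starved of serum for 2 h, exposed to 3× serially diluted compound for 2 h, and stimulated for 30 min with 200 ng/mL IGF1 (final).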

Chain of IGF-1R (P08069 31-1367): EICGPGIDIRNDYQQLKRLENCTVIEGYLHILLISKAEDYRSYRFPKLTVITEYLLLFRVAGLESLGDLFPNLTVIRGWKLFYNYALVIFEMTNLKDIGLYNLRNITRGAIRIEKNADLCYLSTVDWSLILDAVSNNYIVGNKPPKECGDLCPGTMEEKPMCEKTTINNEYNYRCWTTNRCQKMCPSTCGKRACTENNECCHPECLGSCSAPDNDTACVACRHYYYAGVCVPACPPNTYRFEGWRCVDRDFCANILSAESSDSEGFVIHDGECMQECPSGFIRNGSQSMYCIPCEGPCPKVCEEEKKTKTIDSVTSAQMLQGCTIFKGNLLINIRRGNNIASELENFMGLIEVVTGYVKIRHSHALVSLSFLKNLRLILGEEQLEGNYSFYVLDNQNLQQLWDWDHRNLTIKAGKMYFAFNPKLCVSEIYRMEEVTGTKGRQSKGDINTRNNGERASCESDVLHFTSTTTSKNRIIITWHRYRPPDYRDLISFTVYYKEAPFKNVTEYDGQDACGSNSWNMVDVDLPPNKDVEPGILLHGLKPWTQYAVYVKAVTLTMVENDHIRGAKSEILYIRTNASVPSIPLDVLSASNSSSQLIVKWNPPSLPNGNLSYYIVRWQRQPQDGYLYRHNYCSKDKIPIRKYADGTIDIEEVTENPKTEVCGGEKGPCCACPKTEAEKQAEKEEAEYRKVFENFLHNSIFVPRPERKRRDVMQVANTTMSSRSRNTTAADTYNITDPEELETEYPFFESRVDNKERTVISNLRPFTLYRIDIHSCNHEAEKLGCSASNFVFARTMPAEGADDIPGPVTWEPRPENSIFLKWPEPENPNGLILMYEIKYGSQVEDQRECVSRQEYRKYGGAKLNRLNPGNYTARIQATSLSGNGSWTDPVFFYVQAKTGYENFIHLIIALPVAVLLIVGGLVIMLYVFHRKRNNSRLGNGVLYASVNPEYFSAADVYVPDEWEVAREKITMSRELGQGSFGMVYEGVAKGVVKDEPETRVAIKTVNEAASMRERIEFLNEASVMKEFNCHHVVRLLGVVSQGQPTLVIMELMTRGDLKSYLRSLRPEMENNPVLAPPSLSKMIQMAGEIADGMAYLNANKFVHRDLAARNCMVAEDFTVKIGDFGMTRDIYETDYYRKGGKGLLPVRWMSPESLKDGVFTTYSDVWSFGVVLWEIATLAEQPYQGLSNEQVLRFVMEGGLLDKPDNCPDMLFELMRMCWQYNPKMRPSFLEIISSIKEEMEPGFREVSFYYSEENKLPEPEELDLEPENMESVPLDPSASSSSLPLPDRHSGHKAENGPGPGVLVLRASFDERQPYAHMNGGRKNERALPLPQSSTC

| IC50 [nM] | Compound |
| --- | --- |
| ≤ 500 | COc1cc(N2CCC(C)(O)CC2)ncc1Nc1nccc(Nc2cnc3ccc(Cl)cc3c2)n1 [Compound 490, 1-{5-[4-(6-chloro-3-quinolylamino)-2-pyrimidinylamino]-4-methoxy-2-pyridyl}-4-methyl-4-piperidinol] |
| ≤ 500 | COc1cc(Nc2nccc(Nc3cnc4cc(F)c(F)cc4c3)n2)ccc1N1CCC(C)(O)CC1 [Compound 155, 1-(4-((4-((6,7-difluoroquinolin-3-yl)amino)pyrimidin-2-yl)amino)-2-methoxyphenyl)-4-methylpiperidin-4-ol] |
| ≤ 500 | COc1cc(Nc2nccc(Nc3cc4cccc(F)c4[nH]c3=O)n2)cnc1N1CCNC(C(C)(C)O)C1 (centres unmarked) [Compound 238, 8-fluoro-3-(2-{6-[3-(1-hydroxy-1-methylethyl)-1-piperazinyl]-5-methoxy-3-pyridylamino}-4-pyrimidinylamino)-1,2-dihydro-2-quinolinone] |
| 500 to 2000 | COc1cc(Nc2nccc(Nc3cnc4cc(F)c(F)cc4c3)n2)cnc1OC1CCNCC1 [Compound 89, N4-(6,7-difluoroquinolin-3-yl)-N2-(5-methoxy-6-(piperidin-4-yloxy)pyridin-3-yl)pyrimidine-2,4-diamine] |
| ≤ 500 | O=S1(=O)CCN([C@H]2C[C@H](Oc3ccc(Nc4nccc(Nc5cnc6c(c5)OCCO6)n4)cc3)C2)CC1 [Compound 348] |
| 2000 to 10000 | COc1ccc2cc(Nc3ccnc(Nc4ccc(OCCCN5CCOCC5)cc4)n3)cnc2c1 [Compound 406, 4-(7-methoxy-3-quinolylamino)-2-[p-(3-morpholinopropoxy)phenylamino]pyrimidine] |
| ≤ 500 | COc1cc(Nc2nccc(Nc3cnc4c(c3)CCC(C)C4)n2)ccc1OCCCN1CCCCC1 (centres unmarked) [Compound 69, 2-[3-methoxy-4-(3-piperidinopropoxy)phenylamino]-4-(7-methyl-5,6,7,8-tetrahydro-3-quinolylamino)pyrimidine] |
| ≤ 500 | CN(C)CCOc1cc(Nc2nccc(Nc3cnc4ccccc4c3)n2)ccc1N1CCOCC1 [Compound 207, 2-{3-[2-(dimethylamino)ethoxy]-4-morpholinophenylamino}-4-(3-quinolylamino)pyrimidine] |

| Compound | IC50 [nM] |
| --- | --- |
| COc1cc(Nc2nccc(Nc3cnc4c(c3)CCCO4)n2)ccc1O[C@H]1C[C@@H](N(C)C)C1 [Compound 365, 4-(3,4-dihydro-2H-1-oxa-8-azanaphth-6-ylamino)-2-{3-methoxy-4-[(1s,3s)-3-(dimethylamino)cyclobutoxy]phenylamino}pyrimidine] | ≤ 500 |
| COc1cc(Nc2nccc(Nc3cnc4c(F)c(F)ccc4c3)n2)ccc1O[C@H]1C[C@@H](N(C)C)C1 [Compound 298, 4-(7,8-difluoro-3-quinolylamino)-2-{3-methoxy-4-[(1s,3s)-3-(dimethylamino)cyclobutoxy]phenylamino}pyrimidine] | ≤ 500 |
| CN(C)[C@H]1C[C@@H](Oc2ccc(Nc3nccc(Nc4cnc5c(c4)OCCO5)n3)cc2)C1 [Compound 260, 4-(2,3-dihydro-1,4-dioxa-5-aza-7-naphthylamino)-2-{p-[(1s,3s)-3-(dimethylamino)cyclobutoxy]phenylamino}pyrimidine] | ≤ 500 |
| COc1cc(Nc2nccc(Nc3cc4ccc(F)cc4[nH]c3=O)n2)cnc1O[C@H]1C[C@@H](N(C)C)C1 [Compound 244, 7-fluoro-3-(2-{5-methoxy-6-[(1s,3s)-3-(dimethylamino)cyclobutoxy]-3-pyridylamino}-4-pyrimidinylamino)-1,2-dihydro-2-quinolinone] | ≤ 500 |
| CN(C)[C@H]1C[C@H](Oc2ccc(Nc3nccc(Nc4cnc5c(c4)CCCC5)n3)cc2)C1 [Compound 315, 2-{p-[(1r,3r)-3-(dimethylamino)cyclobutoxy]phenylamino}-4-(5,6,7,8-tetrahydro-3-quinolylamino)pyrimidine] | ≤ 500 |
| COc1cc(Nc2nccc(Nc3cnc4ccc(C(F)F)cc4c3)n2)cnc1O[C@H]1C[C@@H](N(C)C)C1 [Compound 163, 4-[6-(difluoromethyl)-3-quinolylamino]-2-{5-methoxy-6-[(1s,3s)-3-(dimethylamino)cyclobutoxy]-3-pyridylamino}pyrimidine] | ≤ 500 |
